For one assay, the target named is T1, TLR7 (Homo sapiens, UniProt Q9NYK1).
T1 construct: lymphocytes, monocytes and dendritic cells that express TLR7, TLR8 and TLR9; endogenous in cells; host or cells: human PBMCs from healthy donors
T1 sequence (Q9NYK1 27-1049): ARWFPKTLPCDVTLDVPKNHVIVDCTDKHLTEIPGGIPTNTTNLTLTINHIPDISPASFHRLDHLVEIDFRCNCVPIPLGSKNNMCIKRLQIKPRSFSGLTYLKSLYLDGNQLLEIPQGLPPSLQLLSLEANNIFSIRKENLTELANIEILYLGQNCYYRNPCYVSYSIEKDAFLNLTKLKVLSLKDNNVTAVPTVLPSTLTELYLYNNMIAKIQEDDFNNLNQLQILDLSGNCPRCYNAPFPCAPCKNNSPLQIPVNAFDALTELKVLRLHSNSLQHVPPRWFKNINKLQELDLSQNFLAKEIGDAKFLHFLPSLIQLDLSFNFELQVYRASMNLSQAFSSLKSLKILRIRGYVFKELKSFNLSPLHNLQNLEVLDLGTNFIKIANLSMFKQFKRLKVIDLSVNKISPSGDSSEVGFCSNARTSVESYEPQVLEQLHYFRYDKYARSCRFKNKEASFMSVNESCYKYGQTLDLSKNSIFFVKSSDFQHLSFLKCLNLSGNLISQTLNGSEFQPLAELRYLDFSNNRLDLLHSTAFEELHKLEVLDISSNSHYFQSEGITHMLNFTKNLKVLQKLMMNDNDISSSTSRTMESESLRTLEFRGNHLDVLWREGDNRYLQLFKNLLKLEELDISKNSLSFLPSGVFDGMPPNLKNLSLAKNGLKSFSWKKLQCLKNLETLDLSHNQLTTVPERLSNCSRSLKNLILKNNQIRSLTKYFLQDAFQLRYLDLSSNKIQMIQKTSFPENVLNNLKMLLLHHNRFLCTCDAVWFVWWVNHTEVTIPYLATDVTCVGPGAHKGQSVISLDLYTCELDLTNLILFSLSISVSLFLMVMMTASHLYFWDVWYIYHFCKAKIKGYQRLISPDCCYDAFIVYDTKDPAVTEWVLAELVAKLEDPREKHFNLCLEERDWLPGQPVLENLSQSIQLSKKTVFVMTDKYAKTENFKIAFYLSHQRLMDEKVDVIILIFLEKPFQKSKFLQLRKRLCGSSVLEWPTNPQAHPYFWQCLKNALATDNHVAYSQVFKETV
Description: Human PBMC cell-based assay, TLR7 agonist GS-986 stimulation, cytokine (IL-6 and IFNα) readout. The following applies: human PBMCs, GS-986 400 nM, 6 hours; Table 26; read-out: TLR-7 EC50. The gist of the method: (§1)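 Cryopreserved healthy-donor PBMCs (100,000 cells/well, RPMI-1640 + 10% FBS) preincubated 1 h at 37 °C with antagonist (10-point dose response), then stimulated 6 h with GS-986 (400 nM final, TLR7) or ODN-2216 (3 μM final, TLR9). Supernatant IL-6 and IFNα measured by electrochemiluminescence immunoassay; EC50 from sigmoidal fit.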

For the next assay, the target named is T2, TLR9 (Homo sapiens, UniProt Q9NR96).
T2 construct: lymphocytes, monocytes and dendritic cells that express TLR7, TLR8 and TLR9; endogenous in cells; host or cells: human PBMCs from healthy donors
T2 sequence (Q9NR96 26-1032): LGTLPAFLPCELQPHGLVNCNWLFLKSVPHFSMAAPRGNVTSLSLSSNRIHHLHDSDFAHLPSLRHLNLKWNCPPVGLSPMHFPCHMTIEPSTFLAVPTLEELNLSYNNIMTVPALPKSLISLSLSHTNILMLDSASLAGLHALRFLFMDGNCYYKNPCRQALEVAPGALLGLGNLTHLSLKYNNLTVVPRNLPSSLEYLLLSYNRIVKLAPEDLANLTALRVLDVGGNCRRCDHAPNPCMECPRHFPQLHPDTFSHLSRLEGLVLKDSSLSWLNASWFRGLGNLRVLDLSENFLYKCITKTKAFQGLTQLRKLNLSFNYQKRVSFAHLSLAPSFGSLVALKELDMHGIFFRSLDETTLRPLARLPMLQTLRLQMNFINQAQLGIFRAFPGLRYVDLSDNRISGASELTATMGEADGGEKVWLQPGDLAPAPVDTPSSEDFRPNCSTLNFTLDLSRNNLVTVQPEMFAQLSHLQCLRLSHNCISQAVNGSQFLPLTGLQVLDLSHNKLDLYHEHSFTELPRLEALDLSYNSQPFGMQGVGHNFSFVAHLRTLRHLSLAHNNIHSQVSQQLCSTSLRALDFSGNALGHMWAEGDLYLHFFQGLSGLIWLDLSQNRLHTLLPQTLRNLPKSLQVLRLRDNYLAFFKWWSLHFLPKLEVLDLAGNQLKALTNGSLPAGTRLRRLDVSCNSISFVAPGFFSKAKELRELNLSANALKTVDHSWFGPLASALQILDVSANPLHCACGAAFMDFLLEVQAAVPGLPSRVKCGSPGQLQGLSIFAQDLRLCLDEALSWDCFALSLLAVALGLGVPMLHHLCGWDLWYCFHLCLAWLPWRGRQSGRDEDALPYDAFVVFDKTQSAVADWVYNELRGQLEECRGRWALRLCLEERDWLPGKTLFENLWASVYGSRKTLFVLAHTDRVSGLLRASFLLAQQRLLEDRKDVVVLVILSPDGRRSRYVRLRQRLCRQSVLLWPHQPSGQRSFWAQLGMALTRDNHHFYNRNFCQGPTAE
Briefly: Human PBMC cell-based assay, TLR9 agonist ODN-2216 stimulation, cytokine (IL-6 and IFNα) readout. The following applies: human PBMCs, ODN-2216 3 μM, 6 hours; Table 26; read-out: TLR-9 EC50. The gist of the method:
as §1

pEC50: −log10 of the molar value.

In general, pEC50 refers to the negative decadic logarithm of the EC50, by convention in mol/L. Consider `Cc1cc(-c2[nH]c3cc(-c4ccc(N5CCN(C(=O)[C@H]6COCCN6)CC5)nc4)ccc3c2C)cc(C)n1` [Example 111], for which the results for the negative logarithm of the EC50 (pEC50) on TLR7 and on TLR9 were 7.25 and 7.23, respectively.

With `Cc1cc(-c2[nH]c3cc(-c4ccc(N5CCN(C(=O)[C@@H]6CNCCO6)CC5)nc4)ccc3c2C)cc(C)n1` [Example 112], the pEC50 on TLR7 is 7.23; on TLR9, 6.94.

With `CNC(=O)CN1CCN(c2ccc(-c3ccc4c(C)c(-c5cc(C)nc(C)c5)[nH]c4c3)cn2)CC1` [Example 113, 2-(4-(5-(2-(2,6-dimethylpyridin-4-yl)-3-methyl-1H-indol-6-yl)pyridin-2-yl)piperazin-1-yl)-N-methylacetamide], the pEC50 on TLR7 is 7.16; at TLR9 it was 6.91.

With `Cc1cc(-c2[nH]c3cc(-c4ccc(N5CCN(CCN(C)C)CC5)nc4)ccc3c2C)cc(C)n1` [Example 114, 2-(4-(5-(2-(2,6-dimethylpyridin-4-yl)-3-methyl-1H-indol-6-yl)pyridin-2-yl)piperazin-1-yl)-N,N-dimethylethan-1-amine], the pEC50 is 7.67 on TLR7 and 7.44 at TLR9.

`Cc1cc(-c2[nH]c3cc(-c4ccc(N5CC[N+](CCN(C)C)(CCN(C)C)CC5)nc4)ccc3c2C)cc(C)n1` [Example 115, 1,1-bis(2-(dimethylamino)ethyl)-4-(5-(2-(2,6-dimethylpyridin-4-yl)-3-methyl-1H-indol-6-yl)pyridin-2-yl)piperazin-1-ium]: the pEC50 at TLR7 is 6.41; at TLR9 it was 6.72.

`Cc1cc(-c2[nH]c3cc(-c4ccc(N5CCN(CC(=O)N(C)C)CC5)nc4)ccc3c2C)cc(C)n1` [Example 116]: the pEC50 on TLR7 is 6.86; at TLR9, 7.17.

Take `COCCN1CCN(c2ccc(-c3ccc4c(C)c(-c5cc(C)nc(C)c5)[nH]c4c3)cn2)CC1` [Example 117]: the figures for the pEC50 on TLR7 and at TLR9 were 7.14 and 7.16, respectively.

As to `Cc1cc(-c2[nH]c3cc(-c4ccc(N5CCN(CC(C)O)CC5)nc4)ccc3c2C)cc(C)n1` (stereo not shown) [Example 118], the figures for the pEC50 at TLR7 and at TLR9 were 8.24 and 7.23, respectively.

`Cc1cc(-c2[nH]c3cc(-c4cccc(C(=O)N5CC[C@H](N)C5)c4)ccc3c2C)cc(C)n1` [Example 119, (S)-(3-aminopyrrolidin-1-yl)(3-(2-(2,6-dimethylpyridin-4-yl)-3-methyl-1H-indol-6-yl)phenyl)methanone]: the figures for the pEC50 at TLR7 and on TLR9 were 7.27 and 6.72, respectively.

On to `Cc1cc(-c2[nH]c3cc(-c4ccc(C(=O)N5CC[C@H](N)C5)cc4)ccc3c2C)cc(C)n1` [Example 120, (S)-(3-aminopyrrolidin-1-yl)(4-(2-(2,6-dimethylpyridin-4-yl)-3-methyl-1H-indol-6-yl)phenyl)methanone], for which the pEC50 on TLR7 is 6.82; on TLR9 it was 7.05.

With `Cc1cc(-c2[nH]c3cc(-c4cccc(C(=O)N5CC[C@@H](N)C5)c4)ccc3c2C)cc(C)n1` [Example 121], the pEC50 on TLR7 is 6.87; on TLR9 it was 6.95.

For the compound `Cc1cc(-c2[nH]c3cc(-c4cccc(C(=O)N5CCC(N)CC5)c4)ccc3c2C)cc(C)n1` [Example 122], the pEC50 on TLR7 was 6.65; on TLR9, 7.06.

For the compound `Cc1cc(-c2[nH]c3cc(-c4cccc(C(=O)N5CC6CNCC6C5)c4)ccc3c2C)cc(C)n1` (stereo not shown) [Example 123], the pEC50 is 6.43 on TLR7 and 6.56 on TLR9.

On to `Cc1cc(-c2[nH]c3cc(-c4ccc(C(=O)N5CC[C@@H](N)C5)cc4)ccc3c2C)cc(C)n1` [Example 124], for which the figures for the pEC50 at TLR7 and on TLR9 were 7.26 and 6.96, respectively.

Regarding `Cc1cc(-c2[nH]c3cc(-c4ccc(C(=O)N5CCC(N)CC5)cc4)ccc3c2C)cc(C)n1` [Example 125], the pEC50 is 7.13 on TLR7 and 7.01 on TLR9.

Take `Cc1cc(-c2[nH]c3cc(-c4ccc(C(=O)N5CC6CNCC6C5)cc4)ccc3c2C)cc(C)n1` (stereo not shown) [Example 126]: the values for the pEC50 on TLR7 and at TLR9 were 7.32 and 6.53, respectively.

On to `Cc1cc(-c2[nH]c3cc(-c4cccc(C(=O)N5CCN6CCC5C6)c4)ccc3c2C)cc(C)n1` (stereo not shown) [Example 127], for which the pEC50 at TLR7 was 7.00; on TLR9 it was 7.13.

Turning to `Cc1cc(-c2[nH]c3cc(-c4ccc(C(=O)N5CCN6CCC5C6)cc4)ccc3c2C)cc(C)n1` (stereo not shown) [Example 128], the pEC50 on TLR7 is 6.84; at TLR9, 7.08.

Consider `Cc1cc(-c2[nH]c3cc(-c4ccc(N5CCN(CC(C)(C)O)CC5)nc4)ccc3c2C)cc(C)n1` [Example 129, 1-(4-(5-(2-(2,6-dimethylpyridin-4-yl)-3-methyl-1H-indol-6-yl)pyridin-2-yl)piperazin-1-yl)-2-methylpropan-2-ol], for which the pEC50 on TLR7 was 7.84; on TLR9, 7.61.

Consider `Cc1cc(-c2[nH]c3cc(-c4ccc(N5CC[C@@H](NCCO)C5)nc4)ccc3c2C)cc(C)n1` [Example 130, (R)-2-((1-(5-(2-(2,6-dimethylpyridin-4-yl)-3-methyl-1H-indol-6-yl)pyridin-2-yl)pyrrolidin-3-yl)amino)ethan-1-ol], for which the pEC50 on TLR7 was 7.79; on TLR9, 7.74.

In the case of `Cc1cc(-c2[nH]c3cc(-c4ccc(N5CCC(NCCO)CC5)nc4)ccc3c2C)cc(C)n1` [Example 131, 2-((1-(5-(2-(2,6-dimethylpyridin-4-yl)-3-methyl-1H-indol-6-yl)pyridin-2-yl)piperidin-4-yl)amino)ethan-1-ol], the pEC50 at TLR7 was 7.75; on TLR9, 7.84.

With `Cc1cc(-c2[nH]c3cc(-c4ccc(C5=CCNCC5)nc4)ccc3c2C)cc(C)n1` [Example 132, 2-(2,6-dimethylpyridin-4-yl)-3-methyl-6-(1′,2′,3′,6′-tetrahydro-[2,4′-bipyridin]-5-yl)-1H-indole], the pEC50 at TLR7 was 8.29; on TLR9 it was 7.97.

Consider `Cc1cc(-c2[nH]c3cc(-c4ccc(N5CCN(C(=O)[C@H]6CCCN6)CC5)nc4)ccc3c2C)cc(C)n1` [Example 134, (R)-2-(2,6-dimethylpyridin-4-yl)-3-methyl-6-(6-(4-prolylpiperazin-1-yl)pyridin-3-yl)-1H-indole], for which the pEC50 is 7.38 at TLR7 and 7.23 at TLR9.

For `Cc1cc(-c2[nH]c3cc(-c4ccc(N5CCN(C(=O)[C@@H]6CCCN6)CC5)nc4)ccc3c2C)cc(C)n1` [Example 135], the pEC50 was 7.13 on TLR7 and 7.38 on TLR9.

Turning to `CNCC(=O)N1CCN(c2ccc(-c3ccc4c(C)c(-c5cc(C)nc(C)c5)[nH]c4c3)cn2)CC1` [Example 136], the pEC50 is 7.42 at TLR7 and 7.34 on TLR9.

As to `Cc1cc(-c2[nH]c3cc(-c4ccc(N5CCN(C(=O)CN)CC5)nc4)ccc3c2C)cc(C)n1` [Example 137], the results for the pEC50 on TLR7 and on TLR9 were 7.34 and 6.93, respectively.
